Measurements published in publication PMC10176470, “Engaging a Non-catalytic Cysteine Residue Drives Potent and Selective Inhibition of Caspase-6” (Journal of the American Chemical Society, 2023).

Tests used:
Type in all cases: cell-based
[1] = target: proteins of HEK293T cells transiently overexpressing caspase-6 (Homo sapiens, UniProt O96008); details: exp_ref Probe; protein TOMM40 (O96008); analysis C6
[2] = target: T1, proteins of HEK293T cells transiently overexpressing caspase-6 (Homo sapiens, UniProt P11498)
T1 sequence (P11498 21-1178): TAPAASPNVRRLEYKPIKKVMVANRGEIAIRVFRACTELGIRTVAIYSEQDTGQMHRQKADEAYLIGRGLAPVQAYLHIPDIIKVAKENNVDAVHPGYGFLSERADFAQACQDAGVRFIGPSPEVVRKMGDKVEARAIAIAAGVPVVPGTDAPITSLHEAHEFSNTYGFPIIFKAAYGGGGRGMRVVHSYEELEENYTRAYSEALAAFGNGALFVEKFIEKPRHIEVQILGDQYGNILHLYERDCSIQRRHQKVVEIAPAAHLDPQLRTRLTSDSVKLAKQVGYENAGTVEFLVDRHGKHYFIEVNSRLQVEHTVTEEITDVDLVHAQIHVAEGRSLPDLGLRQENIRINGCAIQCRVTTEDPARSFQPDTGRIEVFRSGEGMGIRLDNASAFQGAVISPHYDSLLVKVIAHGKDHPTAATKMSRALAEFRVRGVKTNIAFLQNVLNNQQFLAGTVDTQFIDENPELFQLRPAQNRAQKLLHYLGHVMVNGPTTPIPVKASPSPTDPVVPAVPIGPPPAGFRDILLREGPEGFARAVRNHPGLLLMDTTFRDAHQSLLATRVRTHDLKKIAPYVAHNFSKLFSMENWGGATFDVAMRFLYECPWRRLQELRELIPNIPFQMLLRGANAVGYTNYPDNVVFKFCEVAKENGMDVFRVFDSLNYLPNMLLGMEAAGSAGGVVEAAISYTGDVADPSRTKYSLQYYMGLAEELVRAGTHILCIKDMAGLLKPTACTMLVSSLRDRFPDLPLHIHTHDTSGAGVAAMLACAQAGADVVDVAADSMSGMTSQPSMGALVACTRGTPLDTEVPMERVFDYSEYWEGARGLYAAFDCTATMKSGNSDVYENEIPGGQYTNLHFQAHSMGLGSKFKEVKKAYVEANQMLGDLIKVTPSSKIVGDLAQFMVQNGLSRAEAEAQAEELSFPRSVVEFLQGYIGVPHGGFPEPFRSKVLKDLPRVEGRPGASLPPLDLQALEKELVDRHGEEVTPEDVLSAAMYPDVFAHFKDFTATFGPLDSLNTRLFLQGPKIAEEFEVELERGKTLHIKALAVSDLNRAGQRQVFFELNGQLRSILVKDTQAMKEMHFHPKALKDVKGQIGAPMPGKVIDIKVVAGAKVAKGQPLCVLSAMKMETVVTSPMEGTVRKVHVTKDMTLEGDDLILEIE

[3] = target: proteins of HEK293T cells transiently overexpressing caspase-6 (Homo sapiens, UniProt Q00610); details: exp_ref Probe; protein CLTC (Q00610); analysis C6
[4] = target: proteins of HEK293T cells transiently overexpressing caspase-6 (Homo sapiens, UniProt Q16531); details: Probe; protein DDB1 Q16531
[5] = target: T2, proteins of HEK293T cells transiently overexpressing caspase-6 (Homo sapiens, UniProt Q9BQG0); details: protein MYBBP1A (Q9BQG0)
T2 sequence (Q9BQG0 1-1328): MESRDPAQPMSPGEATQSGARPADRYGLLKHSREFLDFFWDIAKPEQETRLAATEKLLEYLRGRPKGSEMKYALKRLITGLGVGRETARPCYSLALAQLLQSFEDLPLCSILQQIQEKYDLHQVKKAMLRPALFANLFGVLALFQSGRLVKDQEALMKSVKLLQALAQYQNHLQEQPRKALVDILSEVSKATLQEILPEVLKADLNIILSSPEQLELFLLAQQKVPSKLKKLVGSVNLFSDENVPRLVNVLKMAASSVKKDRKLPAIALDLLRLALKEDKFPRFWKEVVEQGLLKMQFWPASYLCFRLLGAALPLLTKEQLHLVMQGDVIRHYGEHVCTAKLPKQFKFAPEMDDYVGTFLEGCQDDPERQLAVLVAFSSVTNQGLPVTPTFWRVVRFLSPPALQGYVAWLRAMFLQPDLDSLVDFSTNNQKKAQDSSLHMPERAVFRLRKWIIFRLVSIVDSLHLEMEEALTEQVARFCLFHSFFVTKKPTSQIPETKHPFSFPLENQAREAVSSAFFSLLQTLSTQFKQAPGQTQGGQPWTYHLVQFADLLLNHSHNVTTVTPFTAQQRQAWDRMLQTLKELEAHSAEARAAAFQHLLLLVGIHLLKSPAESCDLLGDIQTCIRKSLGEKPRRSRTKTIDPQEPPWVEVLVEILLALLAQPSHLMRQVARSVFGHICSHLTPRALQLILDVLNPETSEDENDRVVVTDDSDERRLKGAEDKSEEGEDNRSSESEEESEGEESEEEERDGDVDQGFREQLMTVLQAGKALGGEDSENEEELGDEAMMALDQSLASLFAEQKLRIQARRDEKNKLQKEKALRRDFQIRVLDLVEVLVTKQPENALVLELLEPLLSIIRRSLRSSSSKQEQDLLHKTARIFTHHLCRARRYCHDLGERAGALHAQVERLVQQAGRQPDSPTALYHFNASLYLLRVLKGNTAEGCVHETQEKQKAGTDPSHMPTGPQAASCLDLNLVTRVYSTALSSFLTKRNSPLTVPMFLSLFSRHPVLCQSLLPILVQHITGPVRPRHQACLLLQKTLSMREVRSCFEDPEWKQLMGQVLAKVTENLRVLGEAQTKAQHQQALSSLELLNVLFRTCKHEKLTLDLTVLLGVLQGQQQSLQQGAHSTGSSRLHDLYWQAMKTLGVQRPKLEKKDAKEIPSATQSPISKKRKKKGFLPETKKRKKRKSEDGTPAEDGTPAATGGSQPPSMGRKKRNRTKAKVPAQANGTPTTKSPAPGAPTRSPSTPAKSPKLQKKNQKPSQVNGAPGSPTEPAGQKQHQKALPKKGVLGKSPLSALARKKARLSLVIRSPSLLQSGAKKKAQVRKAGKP

[6] = target: proteins of HEK293T cells transiently overexpressing caspase-6 (Homo sapiens, UniProt Q9Y265); details: Probe; protein RUVBL1 Q9Y265
proteins of HEK293T cells transiently overexpressing caspase-6 (Homo sapiens, UniProt Q9Y265), sequence (Q9Y265 whole entry): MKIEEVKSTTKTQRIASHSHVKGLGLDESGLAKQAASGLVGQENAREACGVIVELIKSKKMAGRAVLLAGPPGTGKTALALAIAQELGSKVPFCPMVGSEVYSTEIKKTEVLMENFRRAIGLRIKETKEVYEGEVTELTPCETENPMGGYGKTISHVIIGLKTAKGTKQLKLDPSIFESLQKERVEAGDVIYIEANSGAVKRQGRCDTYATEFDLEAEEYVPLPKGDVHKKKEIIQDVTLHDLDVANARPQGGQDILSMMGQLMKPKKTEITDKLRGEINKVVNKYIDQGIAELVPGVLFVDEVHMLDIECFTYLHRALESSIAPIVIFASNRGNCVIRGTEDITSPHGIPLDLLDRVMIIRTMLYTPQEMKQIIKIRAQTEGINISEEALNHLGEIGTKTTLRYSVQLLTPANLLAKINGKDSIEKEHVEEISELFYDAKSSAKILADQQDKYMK

proteins of HEK293T cells transiently overexpressing caspase-6 (Homo sapiens, UniProt O96008), sequence (O96008 whole entry): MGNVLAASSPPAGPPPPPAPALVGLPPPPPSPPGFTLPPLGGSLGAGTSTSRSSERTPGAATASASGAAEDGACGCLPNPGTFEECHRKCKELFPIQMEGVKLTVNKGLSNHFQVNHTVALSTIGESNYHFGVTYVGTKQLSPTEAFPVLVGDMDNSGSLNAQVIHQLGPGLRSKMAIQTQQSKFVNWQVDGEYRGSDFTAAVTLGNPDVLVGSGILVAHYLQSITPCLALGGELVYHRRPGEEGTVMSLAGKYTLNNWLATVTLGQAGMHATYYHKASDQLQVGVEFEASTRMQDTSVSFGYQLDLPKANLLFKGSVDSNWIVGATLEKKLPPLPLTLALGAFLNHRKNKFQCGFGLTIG
proteins of HEK293T cells transiently overexpressing caspase-6 (Homo sapiens, UniProt Q00610), sequence (Q00610 whole entry): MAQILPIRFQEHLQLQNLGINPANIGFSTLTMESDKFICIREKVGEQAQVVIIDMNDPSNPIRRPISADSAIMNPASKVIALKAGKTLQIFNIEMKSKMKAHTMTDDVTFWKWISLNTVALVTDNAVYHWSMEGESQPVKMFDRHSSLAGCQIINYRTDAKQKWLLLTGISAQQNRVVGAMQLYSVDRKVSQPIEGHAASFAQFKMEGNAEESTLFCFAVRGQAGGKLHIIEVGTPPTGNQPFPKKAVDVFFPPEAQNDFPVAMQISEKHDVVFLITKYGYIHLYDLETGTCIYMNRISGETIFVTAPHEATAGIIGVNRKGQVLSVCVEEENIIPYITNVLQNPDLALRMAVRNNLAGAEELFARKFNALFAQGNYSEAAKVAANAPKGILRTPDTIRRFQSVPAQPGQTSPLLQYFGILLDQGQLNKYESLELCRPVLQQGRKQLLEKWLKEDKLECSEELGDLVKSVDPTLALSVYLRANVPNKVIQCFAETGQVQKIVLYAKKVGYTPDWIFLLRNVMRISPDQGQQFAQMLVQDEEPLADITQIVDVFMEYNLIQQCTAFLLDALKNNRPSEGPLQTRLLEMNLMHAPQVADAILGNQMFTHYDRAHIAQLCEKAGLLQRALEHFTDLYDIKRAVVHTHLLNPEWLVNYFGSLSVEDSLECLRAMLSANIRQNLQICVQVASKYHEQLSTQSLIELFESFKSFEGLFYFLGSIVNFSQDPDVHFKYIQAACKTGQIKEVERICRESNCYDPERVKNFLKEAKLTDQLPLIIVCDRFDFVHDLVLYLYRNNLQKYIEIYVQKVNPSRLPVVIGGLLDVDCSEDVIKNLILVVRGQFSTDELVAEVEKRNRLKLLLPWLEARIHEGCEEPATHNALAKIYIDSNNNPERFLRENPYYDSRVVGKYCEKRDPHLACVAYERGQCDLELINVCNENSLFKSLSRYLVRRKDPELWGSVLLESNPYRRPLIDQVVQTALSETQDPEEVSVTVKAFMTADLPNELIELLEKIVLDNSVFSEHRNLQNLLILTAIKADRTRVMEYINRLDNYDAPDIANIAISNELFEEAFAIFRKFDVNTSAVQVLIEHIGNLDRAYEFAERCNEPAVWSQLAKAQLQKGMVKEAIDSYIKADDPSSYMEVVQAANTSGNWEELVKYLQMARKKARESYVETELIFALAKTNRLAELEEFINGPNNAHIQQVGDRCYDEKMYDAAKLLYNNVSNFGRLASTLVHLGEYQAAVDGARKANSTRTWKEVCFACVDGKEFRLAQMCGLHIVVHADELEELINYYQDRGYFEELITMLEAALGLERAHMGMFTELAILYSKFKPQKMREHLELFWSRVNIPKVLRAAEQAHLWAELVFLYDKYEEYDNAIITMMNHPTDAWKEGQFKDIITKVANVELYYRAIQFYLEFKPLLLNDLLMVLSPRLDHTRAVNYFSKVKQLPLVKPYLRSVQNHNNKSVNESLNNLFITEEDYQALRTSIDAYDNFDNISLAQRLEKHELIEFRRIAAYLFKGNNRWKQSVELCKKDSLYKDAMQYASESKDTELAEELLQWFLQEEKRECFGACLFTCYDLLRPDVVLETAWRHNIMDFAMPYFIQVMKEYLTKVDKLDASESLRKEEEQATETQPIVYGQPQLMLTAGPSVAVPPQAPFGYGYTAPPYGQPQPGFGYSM
proteins of HEK293T cells transiently overexpressing caspase-6 (Homo sapiens, UniProt Q16531), sequence (Q16531 whole entry): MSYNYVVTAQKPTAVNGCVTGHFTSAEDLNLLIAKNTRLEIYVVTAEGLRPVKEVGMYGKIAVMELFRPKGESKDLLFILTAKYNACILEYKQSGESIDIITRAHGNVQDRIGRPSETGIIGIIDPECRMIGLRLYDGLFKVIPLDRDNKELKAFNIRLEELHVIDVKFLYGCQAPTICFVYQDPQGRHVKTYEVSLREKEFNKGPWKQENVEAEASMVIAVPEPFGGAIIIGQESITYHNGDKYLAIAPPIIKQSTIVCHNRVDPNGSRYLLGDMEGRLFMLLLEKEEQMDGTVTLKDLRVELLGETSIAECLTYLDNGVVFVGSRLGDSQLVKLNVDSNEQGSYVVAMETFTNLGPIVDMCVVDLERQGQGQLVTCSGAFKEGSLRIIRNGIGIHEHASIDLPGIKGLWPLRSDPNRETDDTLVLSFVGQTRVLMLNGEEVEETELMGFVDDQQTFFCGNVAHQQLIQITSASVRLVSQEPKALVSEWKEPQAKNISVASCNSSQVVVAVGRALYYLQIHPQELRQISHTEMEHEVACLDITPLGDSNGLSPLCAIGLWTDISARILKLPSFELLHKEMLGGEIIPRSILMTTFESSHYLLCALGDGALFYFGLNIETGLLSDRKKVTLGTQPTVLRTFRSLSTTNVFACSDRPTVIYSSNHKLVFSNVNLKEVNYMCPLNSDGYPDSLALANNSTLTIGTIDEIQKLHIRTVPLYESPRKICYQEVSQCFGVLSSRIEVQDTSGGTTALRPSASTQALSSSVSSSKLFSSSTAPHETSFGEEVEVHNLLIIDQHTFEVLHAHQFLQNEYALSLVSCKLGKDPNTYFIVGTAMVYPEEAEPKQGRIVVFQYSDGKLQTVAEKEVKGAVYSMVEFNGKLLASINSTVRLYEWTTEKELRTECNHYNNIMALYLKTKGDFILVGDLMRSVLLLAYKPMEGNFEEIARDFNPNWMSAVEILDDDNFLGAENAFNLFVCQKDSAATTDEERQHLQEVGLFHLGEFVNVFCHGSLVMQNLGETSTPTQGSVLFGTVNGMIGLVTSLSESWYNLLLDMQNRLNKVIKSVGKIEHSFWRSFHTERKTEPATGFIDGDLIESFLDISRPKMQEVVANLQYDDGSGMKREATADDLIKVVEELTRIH

C#CCOc1ccc([C@@H]2C[C@@H](C(=O)Nc3ccc(OC(F)(F)F)cc3)CN(S(=O)(=O)C=C)C2)cc1 (relative stereo) [13-t]
enrich.exp.med [1]: 0.5045 | enrich.exp.med ([2]; Probe, protein PC P11498): -2.146 | enrich.exp.med.lin ([2]; protein PC (P11498)): 0.2259 | enrich.exp.med.log2 ([2]; protein PC (P11498)): -2.146 | enrich.exp.med [3]: -0.1743 | enrich.exp.med [4]: -0.5354 | enrich.exp.med ([5]; exp_ref Probe, analysis C6): 1.154 | enrich.exp.med.lin [5]: 2.225 | enrich.exp.med.log2 [5]: 1.154 | enrich.exp.med [6]: -0.45
